Source: patent US20210154170A1, “METHODS OF TREATING NEUROPATHIC PAIN” (Biogen MA Inc., priority 2018, published 2021)

Legend:
healthy participants [1] = test: Phase 1 cross-over study, ambulatory blood pressure monitoring (ABPM); assay type: in vivo, human; conditions: for DBP: Change >10 and absolute value >80 mmHg, observations / SBP: Change >10 and absolute value >130 mmHg, observations: 300-400 mg repeat dose; for BIIB074-Placebo difference in change of 24 h average DBP / BIIB074-Placebo difference in change of 24 h average SBP / LS Mean change in 24 h average DBP from baseline / LS Mean change in 24 h average SBP from baseline: outpatient
Description: (§1) This was a Phase 1, randomized, double-blind, placebo-controlled, repeat dose, 2-period cross-over study to investigate the effect of BIIB074 300-400 mg bid on ambulatory blood pressure (ABP) in healthy participants (FIG. 2). The study comprised: screening (to occur a maximum of 30 days before the first baseline assessment); two 36-day treatment periods, each preceded by a baseline visit and separated by a 7-day washout (to minimize possible carry over effects); and a follow-up period of 7-14 days after last dose. Prior to this study, no females had received BIIB074; for this reason, a single dose BIIB074 session at the dose level of 400 mg was also conducted in female participants one week prior to the period 1 baseline visit. Following this session, some participants were predicted to exceed the predefined PK limit (area under the plasma concentration-time curve [AUC] 97 μg·h/mL) when receiving 400 mg bid at steady state. Therefore, in the subsequent phases of the study, all female participants received a lower dose of 300 mg bid (males received 400 mg bid).
Participants were assigned to treatment sequences in accordance with a randomization schedule generated by Discovery Biometrics, prior to the start of the study, using validated software. Study treatment was BIIB074 400 mg bid for males/300 mg bid for females, or placebo, for 36 days. Prior to dosing, volunteers were randomized into one of the following treatment sequences, BIIB074 (period 1):placebo (period 2) or placebo (period 1):BIIB074 (period 2), and more specifically AB and BA if male and CAB and CBA if female, where A=placebo, B=BIIB074 400 mg bid in males and 300 mg bid in females, C=BIIB074 400 mg single dose in females. Randomization numbers were assigned by the site ensuring there was a balance of sequences (AB/BA and CAB/CBA) in each group. Periods 1 and 2 were double-masked to patients and study personnel.
The primary endpoint was change in 24 h average SBP and DBP from baseline to day 36 as determined by ABPM. Secondary outcome measures included: change in 24 h average SBP and DBP from baseline to days 4 and 15; change in average SBP and DBP within a 12 h dosing interval from baseline to days 14 and 35 (inpatient); change in 24 h average ambulatory heart rate from baseline to days 4, 15 and 36; proportion of participants whose 24 h SBP and DBP increased by <5, 5-9, 10-14, 15-19, and >20 mm Hg compared with baseline; PK parameters of BIIB074 following a single oral dose in healthy female participants, and following repeated oral doses given twice daily to healthy male and female participants; PK/pharmacodynamic (PD) analyses to examine the correlation between ABP and plasma levels and/or metrics of the systemic exposure of BIIB074.
ABP was collected over 24 hours on an outpatient basis at baseline and at days 4, 15 and 36, and over 12 hours on an inpatient basis at baseline, and at days 14 and 35. The ABPM device was placed on the non-dominant arm (except in clinical situations that prohibited measuring BP in the non-dominant arm). BP and heart rate were measured every 15 minutes.
Non-inferiority was based on the one-sided 95% confidence interval (CI) for BIIB074-placebo excluding an effect of >5 mmHg in SBP or DBP. It was planned to recruit approximately 60 participants in order to obtain a minimum of 48 evaluable for ABPM during the repeat dose phase, for at least 90% power, assuming a within-subject standard deviation (SDw) of 8.21 mmHg.
ABPM data were analyzed using a repeated measures mixed effects model, whereby fixed effects were treatment, day, treatment*day, period, average baseline*day, period adjusted baseline*day, sex and treatment*sex; random effect was subject; and repeated effect was day. All summary statistics were carried out using SAS 8.02 for UNIX running under the Harmonisation of Analysis and Reporting Program (HARP) environment. […]

healthy participants [2] = test: Phase 1 ABPM study, safety (adverse events, ECG); assay type: in vivo, human
Description: as §1
Safety was assessed through monitoring of adverse events (AEs), vital signs, electrocardiogram (ECG), and laboratory safety tests (including clinical chemistry).
The safety population was the primary analysis population for this study and included all participants who received one or more doses of BIIB074. The PK population was defined as participants in the safety population for whom a PK sample was obtained and analyzed.

[3] = 400 mg single dose, females, N = 22
[4] = 300-400 mg bid repeat dosing, N = 54

## Cl.NC(=O)[C@@H]1CC[C@H](c2ccc(OCc3ccccc3F)cc2)N1 [Example 1, (5R)-5-(4-{[(2-Fluorophenyl)methyl]oxy}phenyl)-L-prolinamide hydrochloride]
Healthy participants [1]; Day 4, outpatient 24 h
  DBP: Change >10 and absolute value >80 mmHg, observations: 137 (10.6%) n (%)
  SBP: Change >10 and absolute value >130 mmHg, observations: 116 (9.0%) n (%)
Healthy participants [1]; Day 15, outpatient 24 h
  DBP: Change >10 and absolute value >80 mmHg, observations: 109 (8.3%) n (%)
  SBP: Change >10 and absolute value >130 mmHg, observations: 95 (7.2%) n (%)
Healthy participants [1]; Day 36, outpatient 24 h
  DBP: Change >10 and absolute value >80 mmHg, observations: 86 (6.9%) n (%)
  SBP: Change >10 and absolute value >130 mmHg, observations: 63 (5.0%) n (%)
Healthy participants [1]; PK/PD analysis, inpatient ABPM
  Slope of linear relationship DBP vs observed plasma concentration: approximately 0.00077±0.00012 mmHg/(ng/mL)
  Slope of linear relationship SBP vs observed plasma concentration: ~0.00056±0.00013 mmHg/(ng/mL)
Healthy participants [1]; PK/PD analysis, over the 24 h interval
  Average increase of SBP with plasma concentration: < 2 mmHg
Healthy participants [1]; SBP on day 4, outpatient
  Upper bound of one-sided 95% CI for BIIB074-placebo: ~2.2 mmHg
Healthy participants [1]; after 36 days of therapy
  Inpatient 12 h ABPM, difference to placebo: no significant differences
Healthy participants [1]; day 36, distribution of individual changes
  Increase in outpatient 24 h SBP or DBP: no evidence to suggest a significant increase
Healthy participants [1]; day 36, outpatient
  Observations with DBP increase >10 mmHg and absolute value >80 mmHg: 6.9%
  Observations with SBP increase >10 mmHg and absolute value >130 mmHg: 5.0%
Healthy participants [1]; day 36, outpatient 24 h (0%)
  Observations with increase from baseline in SBP>30 mmHg: 4/1249
Healthy participants [1]; day 36, outpatient 24 h (3%)
  Observations with increase from baseline in DBP>20 mmHg: 35/1249
Healthy participants [1]; inpatient ABPM, days 14 and 35
  Increase in change from baseline for SBP, DBP, and heart rate: 2.0-2.5 mmHg/bpm
Healthy participants [1]; majority of SBP and DBP comparisons on days 4, 15, 36
  Upper bound of one-sided 95% CI for BIIB074-placebo: < 2 mmHg
Healthy participants [1]; one-sided 95% CI excluding effect >5 mmHg
  Non-inferiority to placebo, outpatient 24 h SBP and DBP: Non-inferiority of BIIB074 compared to placebo was demonstrated
Healthy participants [1]; Day 4
  BIIB074-Placebo difference in change of 24 h average DBP: 0.789 mmHg
  BIIB074-Placebo difference in change of 24 h average SBP: 1.006 mmHg
Healthy participants [1]; Day 4, 300-400 mg bid
  LS Mean change in 24 h average DBP from baseline: 1.856 mmHg
  LS Mean change in 24 h average SBP from baseline: 2.372 mmHg
Healthy participants [1]; Day 15
  BIIB074-Placebo difference in change of 24 h average DBP: 0.645 mmHg
  BIIB074-Placebo difference in change of 24 h average SBP: 0.294 mmHg
Healthy participants [1]; Day 15, 300-400 mg bid
  LS Mean change in 24 h average DBP from baseline: 0.907 mmHg
  LS Mean change in 24 h average SBP from baseline: 0.915 mmHg
Healthy participants [1]; Day 36
  BIIB074-Placebo difference in change of 24 h average DBP: 0.287 mmHg
  BIIB074-Placebo difference in change of 24 h average SBP: −0.507 mmHg
Healthy participants [1]; Day 36, 300-400 mg bid
  LS Mean change in 24 h average DBP from baseline: 0.201 mmHg
  LS Mean change in 24 h average SBP from baseline: −0.327 mmHg
Healthy participants [1]; repeat doses for 36 days
  Change in SBP and DBP, outpatient and inpatient ABPM: lack of clinically relevant change
Healthy participants [2]; 400 mg single dose in females
  Severity of all AEs: mild in nature
Healthy participants [2]; [3]
  Diarrhoea: 0 n (%)
  Dizziness: 5 (23) n (%)
  Fatigue: 0 n (%)
  Headache: 6 (27) n (%)
  Hypersensitivity (allergy symptoms): 0 n (%)
  Nasopharyngitis: 0 n (%)
  Nausea: 3 (14) n (%)
  Oropharyngeal pain: 0 n (%)
  Pain in extremity: 0 n (%)
  Participants with any AE: 12 (55) n (%)
  Pyrexia: 0 n (%)
  Rash: 0 n (%)
  Vomiting: 1 (5) n (%)
Healthy participants [2]; 300-400 mg bid repeat dose
  AEs of moderate intensity: 9 AEs
  AEs of severe intensity: 2 AEs
Healthy participants [2]; [4]
  Diarrhoea: 1 (2) n (%)
  Dizziness: 6 (11) n (%)
  Fatigue: 2 (4) n (%)
  Hypersensitivity (allergy symptoms): 2 (4) n (%)
  Nasopharyngitis: 6 (11) n (%)
  Nausea: 4 (7) n (%)
  Oropharyngeal pain: 2 (4) n (%)
  Pain in extremity: 0 n (%)
  Participants with any AE: 25 (46) n (%)
  Pyrexia: 2 (4) n (%)
  Rash: 1 (2) n (%)
  Vomiting: 3 (6) n (%)
Healthy participants [2]; 300-400 mg bid repeat dosing, N = 54, listed as BIIB074, hydrochloride
  Headache: 11 (20) n (%)
Healthy participants [2]; 300-400 mg bid, 36 days
  Tolerability: well tolerated
Healthy participants [2]; day 1-35
  ECG changes: no clinically significant ECG changes
Healthy participants [2]; of 60 enrolled
  Participants withdrawn due to AEs while on BIIB074: 5 participants
Healthy participants [2]; whole study
  Serious AEs: No serious AEs
